Experimental data reported in patent US11045457B2, “Piperidinyl-3-(aryloxy)propanamides and propanoates” (priority 2018, dated 2021).
pIC50: −log10 of the molar value.

Legend:
SSTR1 = SSTR1 (Homo sapiens (Human), UniProt P30872); assay: SSTR1 I-125 somatostatin competition binding assay for selectivity versus SSTR4 (membranes from CHO-K1 cells overexpressing SSTR1); settings: for SSTR1 Binding pIC50: competition with I-125 labeled somatostatin, CHO-K1 SSTR1 membranes;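 on all read-outs here: Filter-based radioligand binding, bound label counted by scintillation after 60 min incubation at room temperature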
Experimental: Membranes from CHO-K1 cells overexpressing SSTR1 are purchased from Perkin Elmer (catalog number ES-520-M400UA). […] Then 10 μg of SSTR1 membranes in 50 μL assay buffer are added per well. The plate is incubated for 60 minutes at room temperature. […] The contents of the assay plate are transferred to filters with a TomTech harvester and washed 5 times with 20 mM HEPES, 100 mM NaCl. […] The scintillator sheets are melted to the filters using a heat block. The filters are then read in a MicroBeta scintillation counter. Binding Ki curves are generated using Activity Base for Screening Data Management and the results are reported as pIC50.

SSTR4 [1] = target: T1, SSTR4 (Homo sapiens (Human), UniProt P31391); assay: Inhibition of forskolin stimulated cAMP in CHO-K1 cells overexpressing SSTR4; assay type: cell-based; settings: for EC50: read-out: SSTR4 Activity pEC50 (converted)
How it was run: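 Read-out is a HTRF LANCE Ultra cAMP competition using Eu-labelled streptavidin and biotin-cAMP, incubated 60 min at room temperature. It followed a 30 min room-temperature exposure of Kreb's Ringer-washed cells to compound plus forskolin. Potency is expressed as pEC50.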

SSTR4 [2] = target: T1, SSTR4; assay: SSTR4 I-125 somatostatin competition binding assay (membranes from CHO-K1 cells overexpressing SSTR4); settings: competition with I-125 labeled somatostatin; for IC50: read-out: SSTR4 Binding pIC50 (converted)

Chain of SSTR1 (P30872 whole entry): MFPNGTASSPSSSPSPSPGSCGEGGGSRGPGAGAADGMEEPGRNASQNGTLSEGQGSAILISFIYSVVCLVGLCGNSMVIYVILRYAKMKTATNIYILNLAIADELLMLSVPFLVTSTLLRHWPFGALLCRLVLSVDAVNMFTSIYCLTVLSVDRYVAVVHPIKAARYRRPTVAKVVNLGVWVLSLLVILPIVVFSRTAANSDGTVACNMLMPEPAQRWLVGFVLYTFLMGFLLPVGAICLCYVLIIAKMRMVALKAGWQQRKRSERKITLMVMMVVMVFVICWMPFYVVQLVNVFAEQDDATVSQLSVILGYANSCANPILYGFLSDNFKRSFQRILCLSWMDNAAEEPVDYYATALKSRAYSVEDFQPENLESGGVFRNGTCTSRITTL
T1 sequence (P31391 whole entry): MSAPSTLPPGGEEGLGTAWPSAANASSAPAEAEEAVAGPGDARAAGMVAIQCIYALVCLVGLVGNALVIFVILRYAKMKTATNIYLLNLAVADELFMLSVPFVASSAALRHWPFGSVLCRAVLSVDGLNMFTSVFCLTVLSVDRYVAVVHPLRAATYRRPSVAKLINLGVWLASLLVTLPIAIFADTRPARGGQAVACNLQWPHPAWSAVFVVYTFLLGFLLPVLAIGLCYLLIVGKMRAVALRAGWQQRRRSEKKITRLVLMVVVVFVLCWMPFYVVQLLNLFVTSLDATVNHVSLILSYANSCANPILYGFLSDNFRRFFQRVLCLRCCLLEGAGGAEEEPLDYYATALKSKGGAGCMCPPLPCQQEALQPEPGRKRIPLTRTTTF

| Compound | SSTR1 Binding pIC50 (SSTR1) | SSTR4 Activity pEC50 (SSTR4 [1]) | SSTR4 Binding pIC50 (SSTR4 [2]) | pIC50 (SSTR1) | EC50 (SSTR4 [1]) [nM] | IC50 (SSTR4 [2]) [nM] |
| --- | --- | --- | --- | --- | --- | --- |
| C[C@H]1CNCC[C@@H]1NC(=O)C(F)(F)COc1ncccc1C1CC1 [Example 209, 3-((3-cyclopropylpyridin-2-yl)oxy)-2,2-difluoro-N-((3S,4S)-3-methylpiperidin-4-yl)propanamide] | 4.9 | 9.2 | 7.6 |  |  |  |
| CC(C)(COc1ccccc1Cl)C(=O)N[C@H]1CCNC[C@@H]1F [Example 187, 3-(2-chlorophenoxy)-N-((3S,4S)-3-fluoropiperidin-4-yl)-2,2-dimethylpropanamide] | 4.8 | 8.8 | 8.4 |  |  |  |
| C[C@H]1CNCC[C@@H]1NC(=O)C(F)(F)COc1ncccc1C(F)(F)F [Example 208, 2,2-difluoro-N-((3S,4S)-3-methylpiperidin-4-yl)-3-((3-(trifluoromethyl)pyridin-2-yl)oxy)propanamide] | 4.4 | 8.6 | 7.1 |  |  |  |
| Cc1cccnc1OCC(C)(C)C(=O)N[C@@H]1CN(C)C[C@H]1C (racemic) [Example 182, N-(trans-1,4-dimethylpyrrolidin-3-yl)-2,2-dimethyl-3-((3-methylpyridin-2-yl)oxy)propanamide] |  |  |  | 4.90 | 31.6 | 794 |
| C[C@H]1CN(C)CC[C@@H]1NC(=O)C(C)(C)COc1ccccc1F [Example 202, N-((3S,4S)-1,3-dimethylpiperidin-4-yl)-3-(2-fluorophenoxy)-2,2-dimethylpropanamide] | 5.0 | 7.1 | 7.0 |  |  |  |
| CN1CCC(NC(=O)C(C)(C)COc2ccccc2C2CC2)CC1 [Example 70, 3-(2-cyclopropylphenoxy)-2,2-dimethyl-N-(1-methylpiperidin-4-yl)propanamide] | 5.5 | 8.4 | 7.6 |  |  |  |
| CN1CC[C@@H](NC(=O)C(C)(C)COc2ccccc2Cl)C1 [Example 68, (R)-3-(2-chlorophenoxy)-2,2-dimethyl-N-(1-methylpyrrolidin-3-yl)propanamide] | 4.6 | 7.5 | 6.8 |  |  |  |
| C[C@@H]1CN(C)C[C@H]1NC(=O)C(C)(C)COc1ncccc1C(F)(F)F (racemic) [Example 165, N-(trans-1,4-dimethylpyrrolidin-3-yl)-2,2-dimethyl-3-((3-(trifluoromethyl)pyridin-2-yl)oxy)propanamide] |  |  |  | 5.30 | 31.6 | 158 |
| Cc1cccnc1OCC(C)(C)C(=O)N[C@@H]1CN(C)C[C@H]1c1cn(C)nc1C (relative stereo) [Example 23, trans-N-(4-(1,3-dimethyl-1H-pyrazol-4-yl)-1-methylpyrrolidin-3-yl)-2,2-dimethyl-3-((3-methylpyridin-2-yl)oxy)propanamide] | 5.8 | 8.0 | 6.6 |  |  |  |
